From PMC7075946 (Frontiers in Immunology, 2020)
“Also recorded” adds a separate entry of the source.

Columns and labels:
[1] = test system: A/Victoria/210/2009 (H3N2); assay: Splenocyte restimulation, influenza-specific T cell responses (flow cytometry, MSD); format: in vivo, BALB/c mice; conditions: for influenza-specific T cell response (cytokine production of restimulated splenocytes): 5 days post-secondary vaccination, A/Vic restimulation, vs A/Vic alone
[2] = test system: A/Victoria/210/2009 (H3N2); assay: ELISA of influenza-specific serum antibody titers in mice given adjuvanted A/Vic vaccine
[3] = molecular target: T1, human TLR7 (Homo sapiens, UniProt Q9NYK1); assay: cell-based
T1 sequence (Q9NYK1 27-1049): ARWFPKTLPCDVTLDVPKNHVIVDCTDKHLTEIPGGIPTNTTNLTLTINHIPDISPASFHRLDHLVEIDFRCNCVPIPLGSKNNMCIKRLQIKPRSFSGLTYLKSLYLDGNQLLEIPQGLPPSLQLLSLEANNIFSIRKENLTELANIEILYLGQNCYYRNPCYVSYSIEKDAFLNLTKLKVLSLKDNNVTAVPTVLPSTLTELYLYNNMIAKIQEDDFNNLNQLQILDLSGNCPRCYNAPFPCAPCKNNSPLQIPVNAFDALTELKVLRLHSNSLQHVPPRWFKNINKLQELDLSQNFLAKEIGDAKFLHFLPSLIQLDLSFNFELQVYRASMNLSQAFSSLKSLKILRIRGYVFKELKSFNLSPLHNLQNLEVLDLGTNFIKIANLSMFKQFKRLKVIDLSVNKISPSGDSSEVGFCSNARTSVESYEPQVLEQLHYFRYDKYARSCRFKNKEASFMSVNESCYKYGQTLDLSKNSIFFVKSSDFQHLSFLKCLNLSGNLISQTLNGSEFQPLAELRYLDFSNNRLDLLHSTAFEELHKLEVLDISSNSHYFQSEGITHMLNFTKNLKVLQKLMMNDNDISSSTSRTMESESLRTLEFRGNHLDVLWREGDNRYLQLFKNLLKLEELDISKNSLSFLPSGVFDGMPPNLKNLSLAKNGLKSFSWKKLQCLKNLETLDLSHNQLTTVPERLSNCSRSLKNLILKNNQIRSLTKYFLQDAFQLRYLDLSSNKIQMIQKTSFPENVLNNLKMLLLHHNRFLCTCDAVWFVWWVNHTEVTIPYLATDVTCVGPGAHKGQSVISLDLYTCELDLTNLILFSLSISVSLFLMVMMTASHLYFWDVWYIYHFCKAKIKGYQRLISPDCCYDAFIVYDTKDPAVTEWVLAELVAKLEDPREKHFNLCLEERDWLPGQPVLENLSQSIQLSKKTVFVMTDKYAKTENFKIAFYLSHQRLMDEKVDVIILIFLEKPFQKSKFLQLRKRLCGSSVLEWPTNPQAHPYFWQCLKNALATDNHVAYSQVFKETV

[4] = molecular target: T2, human TLR8 (Homo sapiens, UniProt Q9NR97); assay: cell-based
T2 sequence (Q9NR97 27-1041): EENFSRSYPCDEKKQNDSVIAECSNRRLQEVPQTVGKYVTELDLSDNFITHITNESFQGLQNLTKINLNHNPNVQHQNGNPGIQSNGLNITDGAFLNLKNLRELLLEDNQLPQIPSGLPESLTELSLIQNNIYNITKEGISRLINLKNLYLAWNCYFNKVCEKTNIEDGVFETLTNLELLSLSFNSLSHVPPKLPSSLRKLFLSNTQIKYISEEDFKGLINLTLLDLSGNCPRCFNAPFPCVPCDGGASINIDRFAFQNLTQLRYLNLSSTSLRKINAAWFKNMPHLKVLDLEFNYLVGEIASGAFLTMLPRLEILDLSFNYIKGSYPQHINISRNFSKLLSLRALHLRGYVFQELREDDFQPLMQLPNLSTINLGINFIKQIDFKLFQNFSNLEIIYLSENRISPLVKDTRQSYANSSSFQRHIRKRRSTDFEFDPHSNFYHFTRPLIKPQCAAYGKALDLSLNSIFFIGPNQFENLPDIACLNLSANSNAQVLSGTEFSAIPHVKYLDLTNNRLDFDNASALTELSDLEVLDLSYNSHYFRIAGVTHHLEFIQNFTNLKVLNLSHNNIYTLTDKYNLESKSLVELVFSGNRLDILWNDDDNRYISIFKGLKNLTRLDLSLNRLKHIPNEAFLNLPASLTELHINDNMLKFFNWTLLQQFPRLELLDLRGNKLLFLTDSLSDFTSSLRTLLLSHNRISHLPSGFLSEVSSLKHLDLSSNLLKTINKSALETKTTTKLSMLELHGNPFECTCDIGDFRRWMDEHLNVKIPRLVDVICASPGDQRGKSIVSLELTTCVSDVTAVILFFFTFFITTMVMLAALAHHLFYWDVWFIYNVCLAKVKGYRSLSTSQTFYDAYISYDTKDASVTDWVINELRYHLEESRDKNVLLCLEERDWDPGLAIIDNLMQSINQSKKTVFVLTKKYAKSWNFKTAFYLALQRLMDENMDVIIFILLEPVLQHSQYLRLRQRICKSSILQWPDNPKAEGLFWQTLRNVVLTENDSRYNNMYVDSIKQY

[5] = test system: human PBMCs; assay: Human PBMC secreted cytokines (Luminex); format: cell-based; conditions: for pro-inflammatory and Th1/Th17 biasing cytokines, concentrations and frequencies: secreted and intracellular cytokine data
Experimental: Human blood was obtained from healthy adult donors through a University of Montana Institutional Review Board (IRB)-approved protocol. PBMCs were separated from whole blood via density gradient separation using Histopaque 1,077 (Sigma). For PBMC-based assays, cells were resuspended at the desired cell concentration in complete media (RPMI1640+10% FBS+antibiotics). Cells were treated with the indicated compound concentrations and stimulated for 6–24 h depending on the assay as indicated in the figure legends and assays outlined below.
For Luminex assays, supernatants were harvested from treated human PBMCs following 18–24 h of incubation. Supernatants were analyzed using Luminex multiplex panel for analytes IL-1β, IL-12p70, IL-23, IL-6, TNFα, IFNα, and IL-4 (R&D Systems) per the manufacturer's instructions. Multiplex analysis was performed using a Luminex 200 instrument (Luminex Corporation) and analyzed with StarStation2.3 software.
Figure 6 Lipidated imidazoquinolines elicit a Th1/Th17-inducing innate cytokine profile from human PBMCs. PBMCs from 6 healthy, adult blood donors were stimulated with indicated concentrations of TLR7/8 agonists with and without a TLR4 agonist. Secreted cytokines were measured after 24 h via Luminex assay. Supernanant concentrations of (A) IL-12p70, (B) IL-23, (C) IL-1β, and (D) IL-4 were determined. […] Note that for each cytokine measured, the y-axis scale used for the left and right plots is identical for ease of comparison.

| Structure (SMILES) | influenza-specific T cell response (cytokine production of restimulated splenocytes) [1] | frequencies of CD8 IFNγ+ cells ([1]; high dose 10 μg/mouse, with or without a TLR4 agonist, 5dp2) | average fold change of IgG2a vs IgG1 titers over A/Vic alone ([2]; mouse, in vivo) | EC50 [3] [µM] | EC50 [4] [µM] | IFNα secretion ([5]; 24 h) | pro-inflammatory and Th1/Th17 biasing cytokines, concentrations and frequencies [5] | IL-17 response compared to A/Vic antigen alone ([1]; challenge study, 10 μg/mouse alone, 5dp2) | IL-1β production ([5]; compound alone, 24 h) | IL-12p70 production ([5]; compound alone, 24 h) | IL-23 production ([5]; compound alone, 24 h) | average fold change of IgG2a vs IgG1 titers over A/Vic alone ([2]; 14 days post-primary (14dp1)) | IL-12p70 production ([5]; with CRX-601 added at a 1:10 ratio, 24 h) |
| --- | --- | --- | --- | --- | --- | --- | --- | --- | --- | --- | --- | --- | --- |
| CCCCCCCC/C=C\CCCCCCCC(=O)OC[C@H](COP(=O)(O)OCCc1ccc2c(c1)nc(N)c1nc(CCCC)n(CCO)c12)OC(=O)CCCCCCC/C=C\CCCCCCCC [UM-3005] | primarily a Th1 influenza-specific response | significantly increased | IgG2a titers were increased more than IgG1 titers | 499 | 0.27 | secreted | highest concentrations and frequencies |  |  |  |  |  |  |
| CCCCCCCCCCCCCCCC(=O)OC[C@H](COCCOCCOCCOP(=O)(O)OCCn1c(CCCC)nc2c(N)nc3ccccc3c21)OC(=O)CCCCCCCCCCCCCCC [UM-3003] | primarily a Th1 influenza-specific response |  | IgG2a titers were increased more than IgG1 titers | 34.7 | 52.5 | secreted; also recorded: most potent inducer of IFNα | low concentrations and low frequencies | no longer elicited a significantly higher IL-17 response | low concentrations | low levels | low concentrations |  |  |
| CCCCc1nc2c(N)nc3ccccc3c2n1CCO [UM-3001] | did not exhibit any significantly increased cytokine production |  |  | 1.12 | 0.53 | not |  |  |  |  |  | approximately equal increase in both IgG2a and IgG1 titers | boosted IL-12p70 production |
| CCCCCCCCCCCCCCCC(=O)OC[C@H](COCCOCCOCCOCCOCCOCCOP(=O)(O)OCCn1c(CCCC)nc2c(N)nc3ccccc3c21)OC(=O)CCCCCCCCCCCCCCC [UM-3004] | primarily a Th1 influenza-specific response |  |  | 60.5 | 24.6 | secreted |  |  |  |  |  | IgG2a titers were increased more than IgG1 titers |  |
